According to PubChem BioAssay (NCI):
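Dose response: 5 concentrations. Exposure: 48 h. Format: 96-well plates. Endpoint: linear interpolation; highest concentration if not reached. GI50: concentration for 50% inhibition of growth. The concentration for full growth arrest is given as TGI.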

Assays:
Assay in all cases: NCI anticancer screen, dose series, 48 h
OVCAR-3 ovarian = system: OVCAR-3 ovarian
SNB-19 CNS = system: SNB-19 CNS
HT29 colon = system: HT29 colon
PC-3 prostate = system: PC-3 prostate
UO-31 renal = system: UO-31 renal
M14 melanoma = system: M14 melanoma
HCT-15 colon = system: HCT-15 colon
SN12C renal = system: SN12C renal
OVCAR-5 ovarian = system: OVCAR-5 ovarian
NCI-H23 lung = system: NCI-H23 lung

SMILES | GI50 (OVCAR-3 ovarian) | TGI (OVCAR-3 ovarian) | GI50 (SNB-19 CNS) | TGI (SNB-19 CNS) | GI50 (HT29 colon) | TGI (HT29 colon) | GI50 (PC-3 prostate) | TGI (PC-3 prostate) | GI50 (UO-31 renal) | TGI (UO-31 renal) | GI50 (M14 melanoma) | TGI (M14 melanoma) | GI50 (HCT-15 colon) | TGI (HCT-15 colon) | GI50 (SN12C renal) | TGI (SN12C renal) | GI50 (OVCAR-5 ovarian) | TGI (OVCAR-5 ovarian) | GI50 (NCI-H23 lung) | TGI (NCI-H23 lung)
CN1CCC(=C(c2ccc(Cl)cc2)c2ccccn2)CC1 | > 100 µM | > 100 µM | > 100 µM | > 100 µM | 78800 nM | > 100 µM | 80.5 µM | > 100 µM | 18500 nM | > 100 µM | 19200 nM | 38.7 µM | > 100 µM | > 100 µM | > 100 µM | > 100 µM | > 100 µM | > 100 µM | > 100 µM | > 100 µM
CN(C)C/C=C/C(=O)Nc1ccc(C(=O)Nc2cccc(Nc3ncc(Cl)c(-c4c[nH]c5ccccc45)n3)c2)cc1 | < 0.0122 µM | 0.0903 µM | 0.0272 µM | > 35.3 µM | 38.5 nM | 0.678 µM | 0.0315 µM | 0.191 µM | 199 nM | 0.666 µM | 34.6 nM | 0.173 µM | 0.229 µM | > 100 µM | 0.0249 µM | – | 0.0531 µM | – | 0.0257 µM | 0.133 µM
Cc1[nH]c(N)nc(=S)c1CCCNc1ccccc1 | – | > 100 µM | – | > 100 µM | – | > 100 µM | – | > 100 µM | – | > 100 µM | – | > 100 µM | – | > 100 µM | – | > 100 µM | – | > 100 µM | – | > 100 µM
Cc1cc2c(C(C)C)c(O)c(O)c(/C=N/O)c2c(O)c1-c1c(C)cc2c(C(C)C)c(O)c(O)c(/C=N/O)c2c1O | 1.69 µM | 10.1 µM | 3.32 µM | 23.5 µM | 3190 nM | 12.5 µM | 2.8 µM | 13.5 µM | 2240 nM | 12.6 µM | 2460 nM | 10.1 µM | 2.35 µM | 13.4 µM | 4.34 µM | 18.5 µM | 3.08 µM | 12.9 µM | 1.92 µM | 5.74 µM
Cn1ccc(S(=O)(=O)N2CCC[C@H](Nc3nccc(-c4c(-c5cccc(O)c5)nc5occn45)n3)C2)n1 | 13.5 µM | 51.9 µM | 46.4 µM | > 100 µM | 732 nM | 34.7 µM | 19.4 µM | > 100 µM | 12900 nM | 57.1 µM | 112 nM | 13.9 µM | 22.3 µM | > 93.8 µM | 8.01 µM | 51.7 µM | 24.9 µM | > 100 µM | 12 µM | 41.8 µM
Cc1ccc2c(-c3ccnc(Nc4cccc(C(F)(F)F)c4)n3)c(-c3ccccc3)nn2n1 | 5.73 µM | > 18.8 µM | > 17.9 µM | > 25 µM | 2280 nM | > 15.5 µM | > 13 µM | > 25 µM | 1160 nM | > 25 µM | 10500 nM | > 17.2 µM | 5.34 µM | > 19 µM | 3.82 µM | > 15.5 µM | 10.2 µM | 24.6 µM | 11.8 µM | > 25 µM
